According to patent publication US20240237690A1, “Licorice Compounds and Their Use as Flavor Modifiers” (Firmenich SA, priority 2021, published 2024):

Columns and labels:
Type in all cases: in vivo, human
[1] = system: bitter taste of 10 ppm mixture of Limonin, Naringin, and Normilin; experiment: Sensory testing by trained taste panel: bitter taste, citrus bitter mixture; conditions: mean of 20 trained panelists, scale −5 to 5, compound at 10 or 40 ppm, ED at 40 ppm, 0 = reference 10 ppm mixture of Limonin
Source text: (§1) A panel consisted in 20 trained taste panelists evaluated samples of each of Compounds 101-106 at 10 or 40 ppm for taste properties (sweet, licorice, lingering, bitter or astringent) on a scale of −5 to 5 (−5 to −4 denoted strong masking effect, −4 to −3 denoted moderate masking effect, −3 to −2 denoted masking effect, −2 to 0 denoted weak masking effect, while 5 to 4 denoted strong enhancing effect, 4 to 3 denoted moderate enhancing effect, 3 to 2 denoted enhancing effect, 2 to 0 denoted weak enhancing effect, 0 being equal to the intensity of a reference water solution containing 4% sucrose or 0.02% SG95 (>95% steviol glycosides) or 10 ppm mixture of Limonin, Naringin, and Normilin (for bitter and astringent). Note that ED and HED refers to eriodictyol or homoeriodictyol, respectively, at a concentration of 40 ppm.

[2] = system: sweet taste of water solution containing 4% sucrose; experiment: Sensory testing by trained taste panel: sweet taste, sucrose reference; conditions: mean of 20 trained panelists, scale −5 to 5; compound at 10 or 40 ppm; 0 = reference water solution containing 4% sucrose
Source text: as §1

[3] = system: lingering taste of 0.02% SG95 (>95% steviol glycosides); experiment: Sensory testing by trained taste panel: lingering, SG95 reference; conditions: mean of 20 trained panelists, scale −5 to 5; compound at 10 or 40 ppm; 0 = reference 0.02% SG95
Source text: as §1

[4] = system: astringent taste of 10 ppm mixture of Limonin, Naringin, and Normilin; experiment: Sensory testing by trained taste panel: astringent taste, citrus bitter mixture; conditions: mean of 20 trained panelists, scale −5 to 5, compound at 10 or 40 ppm, ED at 40 ppm, 0 = reference 10 ppm mixture of Limonin
Source text: as §1

Row | SMILES | Bitter (Limonin, Naringin, and Normilin) [1] | Sweet (sucrose) [2] | Lingering (SG95) [3] | Astringent (Limonin, Naringin, and Normilin) [4]
1 | O=C1C[C@@H](c2ccc(O)c(O)c2)Oc2cc(O)cc(O)c21 [ED, eriodictyol, reference compound] | Mask (−3 to −2 denoted masking effect) |  |  | 
2 | O=C(/C=C/c1ccc(O)cc1)c1ccc(O)cc1O [Compound 104, isoliquiritigenin] |  | Enhance (3 to 2 denoted enhancing effect) |  | 
3 | O=C1C[C@@H](c2ccc(O[C@@H]3O[C@H](CO)[C@@H](O)[C@H](O)[C@H]3O)cc2)Oc2cc(O)ccc21 [Compound 101, liquiritin] | Mask (−3 to −2 denoted masking effect) | Enhance (3 to 2 denoted enhancing effect) |  | 
4 | O=C1C[C@@H](c2ccc(O)cc2)Oc2cc(O)ccc21 [Compound 102, liquiritigenin] | Mask (−3 to −2 denoted masking effect) |  | Mask (−3 to −2 denoted masking effect) | Mask (−3 to −2 denoted masking effect)
